Where “and” joins values, the source holds several entries; their conditions need not be identical. Equal values may be shown once.
System: HL-1 cells
Experiment: Nanopillar electrode intracellular recording of HL-1 action potentials after electroporation, before and after ion-channel drug
Type: cell-based, mouse
Settings: for APD50 after drug: 10 min incubation, 4 different HL-1 cells in 3 cultures, same cell recorded before and after drug; for APD50 change (%): APD50 after drug versus before drug on the same HL-1 cell
Method: The HL-1 cardiomyocyte cell line was obtained from the laboratory of William C. Claycomb at Louisiana State University. Before plating, the nanopillar electrode device was cleaned with detergent and deionized water, followed by 5 minutes of oxygen plasma treatment. The culture chamber was coated with 5 Δg ml^−1 fibronectin in 0.02% gelatin solution overnight to facilitate cell attachment (Claycomb et al. (1998) Proc. Natl. Acad. Sci. USA 95:2979-2984). HL-1 cells were then plated inside the chamber at a density of ˜1×10^5 cm^−2 and were maintained in the Claycomb medium supplemented with 10% fetal bovine serum, 0.1 mM norepinephrine, 2 mM L-glutamine and 100 U ml^−1 penicillin and 100 Δg ml^−1 streptomycin. The cells were maintained in a standard incubator at 37° C. and 5% CO2. Medium was changed every 24 hours. […] Fluorescent imaging of calcein dye was performed with a 470 nm excitation filter and a 525 nm emission filter.
A 60-channel voltage amplifier system (Multichannel System, MEA1060) was used to record HL-1 cells cultured on the nanopillar electrode arrays (nine nanopillars per array) after the cells started beating. Recording was performed in the same culture medium at 37° C. with an Ag/AgCl electrode in the medium as the reference electrode. The amplification was typically 110× for intracellular recording or 1,100× for extracellular recording, and the sampling rate was 5-20 kHz. The signal was filtered with a band-pass of 1 Hz-5 kHz. For electroporation, 20 biphasic pulses of 2.5 Vamp were applied to a nanopillar electrode in a total time of 1 second. The recording system was blanked during the electroporation period. Electrophysiology recordings were resumed 20-40 seconds after electroporation to avoid amplifier saturation.
For control experiments, we electroporated the cells to record action potentials in the absence of drugs. After the cells had recovered for a few hours, nifedipine or tetraethyl-ammonium of different concentrations was added to the culture medium and the cultures incubated for 10 minutes. Subsequently, another electroporation was applied to record the action potentials of the drug-treated cells.

[1] = 10 mM tetraethylammonium, HL-1 cells, versus control recording without drug (FIG. 5)

Row | SMILES | APD50 after drug (100 nM nifedepine) | APD50 change (%) (100 nM nifedepine) | APD50 after drug (1 mM tetraethylammonium) | APD50 change (%) (1 mM tetraethylammonium) | APD50 [1] | action potential period [1] | APD50 relative to the control (FIG. 5c, four different HL-1 cells on three different cultures per drug)
1 | COC(=O)C1=C(C)NC(C)=C(C(=O)OC)C1c1ccccc1[N+](=O)[O-] [nifedipine] | 41.52 ms and 43.40 ms and 40.92 ms and 33.39 ms | 93.8% and 93.6% and 94.0% and 92.9% | – | – | – | – | –
2 | CC[N+](CC)(CC)CC [tetraethylammonium] | – | – | 50.54 ms and 45.74 ms and 48.78 ms and 54.93 ms | 109.9% and 110.5% and 111.1% and 109.8% | increasing APD50 | decreasing the period | increase
